Test results published in patent publication US7888079B2, “Nε-acyl-L-lysine-specific aminoacylase” (Ajinomoto Co., Inc., priority 2005, dated 2011).
Like-named read-outs stand apart in the source and are kept apart here. One block for each compound: values may come before it.

What was measured:
[1] = system: aminoacylase of the present invention (Nε-acyl-L-lysine-specific aminoacylase); assay: Effect of various inhibitors on the hydrolyzing activity of the aminoacylase; type: biochemical, Streptomyces mobaraensis; details: hydrolysis activity where nothing was added = 100
Description: The activity of the enzyme of the present invention can be measured based on a method of measuring Nε-acetyl-L-lysine hydrolysis activity. For example, the activity of the enzyme of the present invention may be measured by incubating the enzyme with a defined concentration of Nε-acetyl-L-lysine as a substrate for 30 minutes at 37° C. (50 mM Tris-HCl buffer, pH 8.0), and assaying the released L-lysine. 1 U (unit) of the enzyme of the present invention is defined as the amount of the enzyme required to hydrolyze 1 micromole of Nε-acetyl-L-lysine per hour when incubated for 30 minutes at 37° C. (50 mM Tris-HCl buffer, pH 8.0) with 4 mM Nε-acetyl-L-lysine as the substrate, and the released L-lysine was assayed by the acidic ninhydrin method.
The activity of the enzyme of the present invention was measured by incubating the enzyme (50 mM Tris-HCl buffer, pH 8.0) for 30 minutes at 37° C. with a defined concentration of Nε-acetyl-L-lysine as the substrate, and assaying the released L-lysine. 1 U (unit) of the enzyme of the present invention is defined as the amount of the enzyme required to hydrolyze 1 micromole of Nε-acetyl-L-lysine per hour at 37° C. for 30 minutes in 50 mM Tris-HCl buffer, pH 8.0 with 4 mM of Nε-acetyl-L-lysine as the substrate, and the released L-lysine was assayed by acidic ninhydrin method.
The effects of various inhibitors on hydrolysis activity were compared by the measurement methods described above using a purified enzyme obtained as in Example 2. In Table 2, the enzyme activity is presented as a relative value (%) given 100 as hydrolysis activity where nothing was added.

[2] = system: aminoacylase of the present invention (Nε-acyl-L-lysine-specific aminoacylase); assay: Effects of metal ions on hydrolysis activity of enzyme dialyzed against 0-phenanthroline solution; type: biochemical, Streptomyces mobaraensis; details: final concentration 0.1 mM
[3] = system: enzyme of the present invention (aminoacylase); assay: Reactivity of the enzyme on various N-acetyl-L-amino acids (substrate specificity); type: biochemical, Streptomyces mobaraensis; details: for Specific activity (relative activity): relative to Nε-acetyl-L-Lys = 100%; for Specific activity: 1-hour reaction, 50 mM Tris-HCl buffer pH 8.2, 37° C., ND: below detection limit
Description: (§1) The reactivity of the enzyme of the present invention on various N-acetyl-L-amino acids (final concentration 4 mM) was studied to investigate substrate specificity. In Tables 4 and 5 below, the amount (micro mole) of substrate (acetyl-L-amino acid) hydrolyzed per 1 mg of enzyme protein in a 1-hour reaction in 50 mM Tris-HCl buffer (pH 8.2) at 37° C. is given as specific activity.

S. mobaraensis enzyme = assay: Hydrolysis activity on Nε-acyl-L-lysines with various acyl groups, S. mobaraensis enzyme; type: biochemical, Streptomyces mobaraensis; details: for Specific activity, S. mobaraensis enzyme: 1-hour reaction, 50 mM Tris-HCl buffer pH 8.2, 37° C.
Description: as §1
(§2) Substrate specificity was investigated based on hydrolysis activity on Nε-acyl-L-lysines with various acyl groups.

A. pestifer enzyme [4] = details: values marked * from Chibata et al. (1970); cited from earlier work
A. pestifer enzyme [5] = assay: Hydrolysis activity on Nε-acyl-L-lysines with various acyl groups, A. pestifer enzyme; type: biochemical, Achromobacter pestifer
From the text: as §2

[6] = hydrolysis activity with nothing added = 100

Compound: NC(=O)CI [Iodoacetamide]
- Relative activity (%) ([1]; added concentration 1 mM): 83.1%

Compound: [Ca+2].[Cl-].[Cl-] [CaCl2]
- Relative activity (%) [2, 6]: 110.3%

Compound: N[C@@H](CCC(=O)N[C@@H](CS)C(=O)NCC(=O)O)C(=O)O [GSH]
- Relative activity (%) ([1]; added concentration 1 mM): 80.0%

Compound: CC(=O)NCCCC[C@H](N)C(=O)O [Nε-acetyl-L-Lys]
- Specific activity (relative activity) [3]: 100%
- hydrolysis activity on N-acetyl-L-amino acids (in words) ([3]; substrate 4 mM): strong hydrolysis activity
- Specific activity ([3]; substrate 4 mM): 3370 µmol/mg
- Specific activity, S. mobaraensis enzyme (S. mobaraensis enzyme): 3,370 μmol/mg
- Specific activity, A. pestifer enzyme (A. pestifer enzyme [4]): 2,700* μmol/mg

Compound: O=C(O)c1cc[c]([Hg][Cl])cc1 [PCMB]
- Relative activity (%) ([1]; added concentration 1 mM): 86.1%

Compound: N[C@@H](CCCCNC(=O)CCl)C(=O)O [Nε-chloroacetyl-L-lys]
- Specific activity, S. mobaraensis enzyme (S. mobaraensis enzyme): 1,030 μmol/mg
- Specific activity, A. pestifer enzyme (A. pestifer enzyme [4]): 5,300* μmol/mg

Compound: c1cnc2c(c1)ccc1cccnc12 [0-phenanthroline]
- Relative activity (%) ([1]; added concentration 1 mM): 10.3%

Compound: O=S(=O)([O-])[O-].[Cu+2] [CuSO4]
- Relative activity (%) [2, 6]: 67.2%

Compound: O=C(O)CN(CCN(CC(=O)O)CC(=O)O)CC(=O)O [EDTA]
- Relative activity (%) ([1]; added concentration 1 mM): 74.6%

Compound: CCCCCCCC(=O)NCCCC[C@H](N)C(=O)O [Nε-octanoyl-L-Lys]
- Specific activity, S. mobaraensis enzyme (S. mobaraensis enzyme): 570 µmol/mg
- Specific activity, A. pestifer enzyme (A. pestifer enzyme [4]): 12,500* μmol/mg

Compound: O[C@@H](CS)[C@@H](O)CS [DTT]
- Relative activity (%) ([1]; added concentration 1 mM): 64.7%

Compound: O=S(=O)([O-])[O-].[Fe+2] [FeSO4]
- Relative activity (%) [2, 6]: 85.3%

Compound: [Cl-].[Cl-].[Co+2] [CoCl2]
- Relative activity (%) [2]: 140.8%

Compound: N[C@@H](CCCCNC(=O)c1ccccc1)C(=O)O [Nε-benzoyl-L-Lys]
- Specific activity, S. mobaraensis enzyme (S. mobaraensis enzyme): 1,380 μmol/mg
- Specific activity, A. pestifer enzyme (A. pestifer enzyme [4]): 15,000* μmol/mg

Now from value to compound:

- Relative activity (%) [2, 6]: 110.2%
Compound: [Cl-].[K+] [KCl]

- Relative activity (%) [2, 6]: 103.3%
Compound: O=S(=O)([O-])[O-].[Zn+2] [ZnSO4]

- Relative activity (%) [2, 6]: 114.1%
Compound: O=S(=O)([O-])[O-].[Mn+2] [MnSO4]

- Relative activity (%) ([1]; added concentration 10 mM): 87.5%
Compound: OCCS [β-mercaptoethanol]

- hydrolysis activity of the enzyme of the present invention (in words) (S. mobaraensis enzyme): no hydrolysis activity
- Specific activity, S. mobaraensis enzyme (S. mobaraensis enzyme): 0 µmol/mg
Compound: CCCCCCCCCCCC(=O)N[C@@H](CCCCN)C(=O)O [Nα-lauroyl-L-Lys]

- Specific activity (relative activity) [3]: 2.1%
- Specific activity ([3]; substrate 4 mM): 70 µmol/mg
Compound: CC(=O)N[C@@H](CCCCN)C(=O)O [Nα-acetyl-L-Lys]

- Relative activity (%) ([1]; added concentration 1 mM): 77.6%
Compound: N[C@@H](CS)C(=O)O [L-cysteine]

- Specific activity, S. mobaraensis enzyme (S. mobaraensis enzyme): 28 µmol/mg
- hydrolysis activity of the enzyme from A. pestifer (in words) (A. pestifer enzyme [5]): very little hydrolysis activity
- Specific activity, A. pestifer enzyme (A. pestifer enzyme [5]; value without literature mark): 0.4 µmol/mg
Compound: CCCCCCCCCCCC(=O)NCCCC[C@H](N)C(=O)O [Nε-lauroyl-L-Lys]

- Relative activity (%) [2, 6]: 121.1%
Compound: O=S(=O)([O-])[O-].[Mg+2] [MgSO4]
